We go through four compounds from patent US20050130252A1, “Stabilized susceptibility tests of aerobic pathogens” (Wyeth Holdings Corporation, priority 2003, published 2005).

The structures appear in SMILES notation. Values after ≈ are worked out from the molar mass of the structure shown. Like-named read-outs stand apart in the source and are kept apart here.

What all share (assay): Broth microdilution MIC
Assay [1] concerns P. aeruginosa ATCC 27853. In kind it is cell-based, Pseudomonas aeruginosa. The conditions noted are these: for Minimal Inhibitory Concentration: P. aeruginosa ATCC 27853; for MIC: Pseudomonas aeruginosa, ATCC27853, P. aeruginosa ATCC 27853, read-out: Minimal Inhibitory Concentration. The protocol:
(§1) The process for preparing susceptibility test medium are the following steps: • a. Preparing Mueller Hinton Broth II medium by adding 22 grams powdered media to 1.0 liter distilled water; • b. Autoclaving (121° C., 15 psi, 15 minutes) and cooling the medium; • c. Adding Oxyrase® up to about 10% final volume and keeping at 35-37° C. in an incubator for 30 minutes; • d. Adding about 50 μL to each well of a 96 well microtiter plate; • e. Weighing drug and adding broth to drug to bring up to about (standard 128 μg/ml); • f. Adding 50 μL of the drug to the first column of the titer plate; • g. Diluting by two-fold serial diluting across or down the plate. • h. Preparing a Prompt™ inoculum at 10^8 CFU/ml; • i. Diluting inoculum 1:100 in the broth at […] in 9.9 ml (1:100) is 10^6 colony forming units (CFU) forming the adjusted inoculum; • j. Adding 50 μL of the adjusted inoculum to the wells of the microtiter plate; • k. Incubating the plates at 35-37° C. for 18-22 hours; and • l. Reading, with the unaided eye, the MIC.
(§2) The in vitro activities of tigecycline and control antibiotics were determined by the broth microdilution method as recommended by the NCCLS. (National Committee for Clinical Laboratory Standards, 2003. Methods for Dilution Antimicrobial Susceptibility Tests for Bacteria That Grow Aerobically; Approved Standards: M7-A6, Sixth ed, vol. 23., National Committee for Clinical Laboratory Standards Wayne, Pa.) was used for the standard procedures. MBH with 5% lysed horse blood was used for testing S. pneumoniae and Haemophilus Test Medium was used for testing H. influenzae. Oxyrase® (Oxyrase Inc, Mansfield, Ohio) was used according to the manufacturer's instructions by adding 1 ml of Oxyrase® to 50 ml of media. Media age studies were performed by preparing MHB in multiple flasks, then storing the media under various conditions. MICs were usually performed in duplicate on each day of testing. Storage under anaerobic conditions was conducted in an anaerobic chamber (MACS MG 1000, Don Whitley Scientific LTD). The pH of the media was determined by pH meter (Corning 430). A comparison of the in vitro activity of tigecycline by agar and broth dilution methodolgies with and without Oxyrase® against clinical isolates is shown in Table 1.

The test system of assay [2] is E. coli ATCC 25922. The format is cell-based, Escherichia coli. The conditions noted are these: for Minimal Inhibitory Concentration: E. coli ATCC 25922; for MIC: Escherichia coli, ATCC25922, E. coli ATCC 25922, read-out: Minimal Inhibitory Concentration. Here is the method: as §1, §2
For assay [3], the system named is S. aureus ATCC 25923. In kind it is cell-based, Staphylococcus aureus. Particulars: for Minimal Inhibitory Concentration: S. aureus ATCC 25923; for MIC: Staphylococcus aureus, ATCC25923, S. aureus ATCC 25923, read-out: Minimal Inhibitory Concentration. The protocol:
as §1, §2

For assay [4], the system named is E. faecalis ATCC 29212. In kind it is cell-based, Enterococcus faecalis. Particulars: for Minimal Inhibitory Concentration: E. faecalis ATCC 29212; for MIC: Enterococcus faecalis, ATCC29212, E. faecalis ATCC 29212, read-out: Minimal Inhibitory Concentration. Here is the method: as §1, §2
Assay [5] deals with S. aureus ATCC 29213. In kind it is cell-based, Staphylococcus aureus. Particulars: Staphylococcus aureus, ATCC29213, S. aureus ATCC 29213, read-out: Minimal Inhibitory Concentration. The protocol: as §1, §2
The mark [6] stands for this setting: Mueller Hinton Broth II (Fresh).
[7] abbreviates: Mueller Hinton Broth II (MHB II).

Consider `CN(C)CC(=O)Nc1ccc2c(c1O)C(=O)C1=C(O)C3(O)C(=O)C(C(N)=O)=C(O)C(N(C)C)C3CC1C2` (stereo not shown) [DMG-DMDOT, N,N-dimethylglycylamido 9 amino-6-demethyl-6-deoxytetracycline], for which the “Minimal Inhibitory Concentration” value worked out at 8 µg/mL in assay [1] (2% Oxyrase); 16 µg/mL in assay [1] (No Oxyrase); 0.12 µg/mL in assay [2] (2% Oxyrase); 0.12 µg/mL in assay [2] (No Oxyrase); 0.12 µg/mL in assay [3] (2% Oxyrase); 0.25 µg/mL in assay [3] (No Oxyrase). Besides, the “Minimal Inhibitory Concentration” value in assay [4] (2% Oxyrase) and in assay [4] (No Oxyrase) was 0.06 µg/mL in each case.

On to `CN(C)CC(=O)Nc1cc(N(C)C)c2c(c1O)C(=O)C1=C(O)C3(O)C(=O)C(C(N)=O)=C(O)C(N(C)C)C3CC1C2` (stereo not shown) [DMG-MINO, N,N-dimethylglycylamido 9-aminominocycline], for which the “Minimal Inhibitory Concentration” value was 16 µg/mL in assay [1] (2% Oxyrase); 16 µg/mL in assay [1] (No Oxyrase); 0.06 µg/mL in assay [2] (2% Oxyrase); 0.25 µg/mL in assay [2] (No Oxyrase); 0.12 µg/mL in assay [3] (2% Oxyrase); 0.50 µg/mL in assay [3] (No Oxyrase). Further, the results for the “Minimal Inhibitory Concentration” value in assay [4] (2% Oxyrase) and in assay [4] (No Oxyrase) were 0.03 µg/mL and 0.25 µg/mL, respectively.

Regarding `CN(C)c1ccc(O)c2c1C[C@H]1C[C@H]3[C@H](N(C)C)C(O)=C(C(N)=O)C(=O)[C@@]3(O)C(O)=C1C2=O` [Minocycline], the MIC in assay [1] (2% Oxyrase) is 16 µg/mL (≈ 35 µM); in assay [1] (No Oxyrase) it was > 16 µg/mL; in assay [2] (2% Oxyrase) it was 0.5 µg/mL (≈ 1.09 µM); in assay [2] (MHB II + 0.05% Catalase), 1 µg/mL; in assay [2] (MHB II + 0.05% L-ascorbic Acid), 4 µg/mL; in assay [2] (MHB II + 0.05% L-cysteine) it was 2 µg/mL. Besides, the MIC was 0.5 µg/mL in assay [2] (MHB II + 0.05% Sodium Pyruvate); 1 µg/mL in assay [2] (MHB II + 0.05% Thioglycolate); 0.5 µg/mL in assay [2] (MHB II + 2% Oxyrase); 0.5 to 1 µg/mL (≈ 1.09 to 2.19 µM) in assay [2] (setting [6]); 0.5 to 1 µg/mL (≈ 1.09 to 2.19 µM) in assay [2] (setting [7]); 1 µg/mL (≈ 2.19 µM) in assay [2] (No Oxyrase). Also, the MIC in assay [3] (2% Oxyrase) was found to be 0.12 µg/mL (≈ 0.262 µM); in assay [3] (MHB II + 0.05% Sodium Pyruvate), 0.25 µg/mL; in assay [3] (No Oxyrase), 0.25 µg/mL (≈ 0.546 µM); in assay [5] (MHB II + 0.05% Catalase), 0.5 µg/mL; in assay [5] (MHB II + 0.05% L-ascorbic Acid), 1 µg/mL; in assay [5] (MHB II + 0.05% L-cysteine), 0.25 µg/mL. Besides, the MIC is 0.25 µg/mL in assay [5] (MHB II + 0.05% Thioglycolate); 0.12 to 0.25 µg/mL in assay [5] (MHB II + 2% Oxyrase); 0.12 to 0.5 µg/mL (≈ 0.262 to 1.09 µM) in assay [5] (setting [6]); 0.25 to 0.5 µg/mL (≈ 0.546 to 1.09 µM) in assay [5] (setting [7]); 2 µg/mL (≈ 4.37 µM) in assay [4] (2% Oxyrase); 4 µg/mL in assay [4] (MHB II + 0.05% Catalase). Further, the MIC in assay [4] (MHB II + 0.05% L-ascorbic Acid) was 4 µg/mL; in assay [4] (MHB II + 0.05% L-cysteine) it was 4 µg/mL; in assay [4] (MHB II + 0.05% Sodium Pyruvate) it was 2 µg/mL; in assay [4] (MHB II + 0.05% Thioglycolate) it was 8 µg/mL; in assay [4] (MHB II + 2% Oxyrase), 2 to 4 µg/mL; in assay [4] (setting [6]), 4 µg/mL (≈ 8.74 µM). Besides, the MIC in assay [4] (setting [7]) was 4 to 8 µg/mL (≈ 8.74 to 17.5 µM); in assay [4] (No Oxyrase), 4 µg/mL (≈ 8.74 µM).

Take `CN(C)[C@@H]1C(O)=C(C(N)=O)C(=O)[C@@]2(O)C(O)=C3C(=O)c4c(O)cccc4[C@@](C)(O)[C@H]3C[C@@H]12` [Tetracycline]: the MIC was 4 µg/mL in assay [2] (MHB II + 0.05% Catalase); > 4 µg/mL in assay [2] (MHB II + 0.05% L-ascorbic Acid); 4 µg/mL in assay [2] (MHB II + 0.05% L-cysteine); 2 µg/mL in assay [2] (MHB II + 0.05% Sodium Pyruvate); 4 µg/mL in assay [2] (MHB II + 0.05% Thioglycolate); 1 µg/mL in assay [2] (MHB II + 2% Oxyrase). The MIC in assay [2] (setting [6]) was 1 to 2 µg/mL (≈ 2.25 to 4.5 µM); in assay [2] (setting [7]) it was 1 to 2 µg/mL (≈ 2.25 to 4.5 µM); in assay [3] (MHB II + 0.05% Sodium Pyruvate), 1 µg/mL; in assay [5] (MHB II + 0.05% Catalase), 1 µg/mL; in assay [5] (MHB II + 0.05% L-ascorbic Acid) it was 2 µg/mL; in assay [5] (MHB II + 0.05% L-cysteine), 1 µg/mL. Besides, the MIC in assay [5] (MHB II + 0.05% Thioglycolate) is 1 µg/mL; in assay [5] (MHB II + 2% Oxyrase) it was 0.5 to 1 µg/mL; in assay [5] (setting [6]) it was 1 to 2 µg/mL (≈ 2.25 to 4.5 µM); in assay [5] (setting [7]), 0.5 to 1 µg/mL (≈ 1.13 to 2.25 µM); in assay [4] (MHB II + 0.05% Catalase), 16 µg/mL; in assay [4] (MHB II + 0.05% L-ascorbic Acid), > 4 µg/mL. Also, the MIC in assay [4] (MHB II + 0.05% L-cysteine) was > 4 µg/mL; in assay [4] (MHB II + 0.05% Sodium Pyruvate) it was 16 µg/mL; in assay [4] (MHB II + 0.05% Thioglycolate) it was > 16 µg/mL; in assay [4] (setting [6]) it was > 4 µg/mL.
